One data set concerns the target T1, dopamine D2 receptor (Rattus norvegicus, UniProt P61169).
T1 construct: from tissue; host or cells: rat striatal brain tissue homogenate
Nature of the data set: Dopamine D2 receptor affinity, 3H-quinpirole binding in homogenized rat striatal brain tissue. On the procedure:
Affinity for the dopamine D2 receptor was established by a modification of the standard experimental test procedure of Seemen and Schaus, European Journal of Pharmacology 203: 105-109, 1991, wherein homogenized rat striatal brain tissue is incubated with ^3H-quinpirole and various concentrations of test compound, filtered and washed and counted in a Betaplate scintillation counter.

Counter-ions that a name gives are not always drawn.

T1 sequence (P61169 whole entry): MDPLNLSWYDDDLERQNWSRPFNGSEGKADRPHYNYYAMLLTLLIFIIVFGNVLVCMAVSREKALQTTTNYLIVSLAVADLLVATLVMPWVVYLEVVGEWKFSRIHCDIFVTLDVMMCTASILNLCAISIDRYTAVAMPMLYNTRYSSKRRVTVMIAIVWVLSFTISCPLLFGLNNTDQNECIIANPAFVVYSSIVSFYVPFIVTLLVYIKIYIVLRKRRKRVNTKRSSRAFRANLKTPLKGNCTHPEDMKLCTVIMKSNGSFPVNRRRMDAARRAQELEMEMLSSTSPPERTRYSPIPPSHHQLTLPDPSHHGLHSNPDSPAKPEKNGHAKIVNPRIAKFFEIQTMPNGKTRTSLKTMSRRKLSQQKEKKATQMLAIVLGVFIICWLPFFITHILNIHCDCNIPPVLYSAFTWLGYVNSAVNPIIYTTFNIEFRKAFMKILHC

Broadly, the melting point is the temperature of the solid-liquid transition. For the molecule `c1ccc(CNC[C@H]2COc3ccc4[nH]ncc4c3O2)cc1` (as salt: fumarate) (hydrate or solvate) [Example 1], the melting point was 194 to 195.7 °C.

`c1ccc(CCCCNC[C@H]2COc3ccc4[nH]ncc4c3O2)cc1` (as salt: hydrochloride) (hydrate or solvate) [Example 2]: the melting point was 104 °C.

Molecule `c1cc2[nH]ncc2c2c1OCC(CNCC13CC4CC(CC(C4)C1)C3)O2` (centres unmarked) (as salt: hydrochloride) [Example 3, Adamantan-1-ylmethyl-(-7,8-dihydro-3H-6,9-dioxa-2,3-diaza-cyclopenta[a]naphthalen-8-ylmethyl)-amine] displayed a melting point greater than 300 °C. In turn, `c1ccc2c(c1)CCN(CC1COc3ccc4[nH]ncc4c3O1)C2` (centres unmarked) (as salt: hydrochloride) [Example 5, 8-(3,4-Dihydro-1H-isoquinolin-2-ylmethyl)-7,8-dihydro-3H-6,9-dioxa-2,3-diaza-cyclopenta[a]naphthalene] registered a melting point of 170 to 172 °C. For the molecule `C1=C(c2c[nH]c3ccccc23)CCN(CC2COc3ccc4[nH]ncc4c3O2)C1` (centres unmarked) (as salt: hydrochloride) [Example 6, 8-[4-(1H-indol-3-yl)-3,6-dihydro-2H-pyridin-1-ylmethyl]-7,8-dihydro-3H-6,9-dioxa-2,3-diaza-cyclopenta[a]naphthalene], the melting point was 190 °C.

`Fc1ccc2[nH]cc(CC3CCN(CC4COc5ccc6[nH]ncc6c5O4)CC3)c2c1` (centres unmarked) (as salt: hydrochloride) [Example 7, 8-[4-(5-Fluoro-1H-indol-3-ylmethyl)-piperidin-1-ylmethyl]-7,8-dihydro-3H-6,9-dioxa-2,3-diaza-cyclopenta[a]naphthalene] came in with a melting point of 165 °C. Still for that read-out and setting: under `c1ccc2c(CCCNCC3COc4ccc5[nH]ncc5c4O3)c[nH]c2c1` (centres unmarked) (as salt: oxalate) [Example 4, (7,8-Dihydro-3H-6,9-dioxa-2,3-diaza-cyclopenta[a]naphthalen-8-ylmethyl)-[3-(1H-indol-3-yl)-propyl]-amine] stands 138 to 142 °C. For orientation: IC50 means the concentration at which inhibition is half-maximal. In turn, `c1ccc(CNC[C@H]2COc3ccc4[nH]ncc4c3O2)cc1` [Example 1] yielded a concentration for half-maximal inhibition (IC50) on dopamine D2 receptor of 0.45 nM. That is a sub-nanomolar value.

On dopamine D2 receptor, `c1ccc(CCCCNC[C@H]2COc3ccc4[nH]ncc4c3O2)cc1` [Example 2] returned an IC50 of 0.29 nM.

For the molecule `c1cc2[nH]ncc2c2c1OCC(CNCC13CC4CC(CC(C4)C1)C3)O2` (centres unmarked) [Example 3, Adamantan-1-ylmethyl-(-7,8-dihydro-3H-6,9-dioxa-2,3-diaza-cyclopenta[a]naphthalen-8-ylmethyl)-amine], at dopamine D2 receptor, the concentration for half-maximal inhibition (IC50) is 0.1 nM. In the case of `c1ccc2c(CCCNCC3COc4ccc5[nH]ncc5c4O3)c[nH]c2c1` (centres unmarked) [Example 4, (7,8-Dihydro-3H-6,9-dioxa-2,3-diaza-cyclopenta[a]naphthalen-8-ylmethyl)-[3-(1H-indol-3-yl)-propyl]-amine], the half-inhibitory concentration (IC50) on dopamine D2 receptor is 0.17 nM. For `c1ccc2c(c1)CCN(CC1COc3ccc4[nH]ncc4c3O1)C2` (centres unmarked) [Example 5, 8-(3,4-Dihydro-1H-isoquinolin-2-ylmethyl)-7,8-dihydro-3H-6,9-dioxa-2,3-diaza-cyclopenta[a]naphthalene], the IC50 on dopamine D2 receptor worked out at 1.1 nM. As for `C1=C(c2c[nH]c3ccccc23)CCN(CC2COc3ccc4[nH]ncc4c3O2)C1` (centres unmarked) [Example 6, 8-[4-(1H-indol-3-yl)-3,6-dihydro-2H-pyridin-1-ylmethyl]-7,8-dihydro-3H-6,9-dioxa-2,3-diaza-cyclopenta[a]naphthalene], at dopamine D2 receptor, the IC50 came out at 4.5 nM. `Fc1ccc2[nH]cc(CC3CCN(CC4COc5ccc6[nH]ncc6c5O4)CC3)c2c1` (centres unmarked) [Example 7, 8-[4-(5-Fluoro-1H-indol-3-ylmethyl)-piperidin-1-ylmethyl]-7,8-dihydro-3H-6,9-dioxa-2,3-diaza-cyclopenta[a]naphthalene] displayed an IC50 on dopamine D2 receptor of 3.4 nM.
